Assay results taken from patent US20040033213A1, “Methods of modulating dendritic cells using adjuvants” (Corixa Corporation, priority 2002, published 2004).

Assays:
Format in all cases: cell-based
[1] = test system: cultured human DCs + autologous T cells
[2] = test system: 6-7 day cultured human dendritic cells; test: ELISA of cytokines (IL-12 p40, IL-12 p70, TNF-α) in 22 h induction supernatants of cultured human dendritic cells; conditions: for IL-12 p40 / IL-12 p70 / TNF-α: 22 Hrs
From the text: Recent articles have described how human dendritic cells can be derived in vitro from CD14 positive monocyte precursors in peripheral blood. A “buffy coat” preparation can now be commonly obtained from a unit of normal human peripheral blood from a blood bank on request. The leukocyte fraction was harvested from this buffy coat preparation using standard ficoll centrifugation techniques. Subsequently, the leukocyte fraction was labeled with anti-CD 14 antibody coupled to magnetic microbeads. This preparation was then passed over a magnet (Miltanyi Biotech) and CD14 positive monocytes were collected. These CD14 positive monocyte precursors were then cultured for 5-7 days in vitro (5×10^5 cells/ml) with GM-CSF (20 ng/ml) for the duration of the culture. […] After the 24 hour in vitro stimulation culture, cells were washed twice and stained with a panel of monoclonal antibodies specific for different cell surface activation and co-receptor molecules found on mature, activated DCs.
Supernatants from DCs stimulated with LPS, MPL® immunostimulant-S, RC-527, RC-529, and RC-544 were collected and tested by ELISA analysis for cytokines.

[3] = test system: Human d7 Cultured Dendritic Cells; test: Flow cytometry phenotype analysis of human d7 cultured dendritic cells after 24 h stimulation; conditions: LPS 10 ng/ml, others 100 ng/ml; for HLA-DR MFI: 7 day DCs, 24 h stimulation
[4] = test system: murine bone marrow derived DCs + D011.10 T cells; test: APC function of ova-pulsed, lipid A potentiated murine DCs co-cultured with D011.10 T cells (cytokine ELISA)
From the text: These antigen pulsed, lipid A potentiated cells were then washed thoroughly and titered against ova-specific T cell effector cells in vitro at an APC: T cell ratio titration of 1:1 out to as high as 1:512. The effector T cells in this in vitro assay were the antigen naive, but antigen (ova) specific, MHC restricted I-A^d splenic T cells from transgenic D011.10 mice.
D011.10 TCR-transgenic mice were used in these experiments as donors of antigen specific naive T cells. In their germline DNA these mice contain rearranged TCR-Vα and -Vβ genes that encode a T cell receptor (TCR) specific for the ovalbumin peptide 323-339 bound to IA^d (Balb/c) Class II MHC molecules. The transgenic ova peptide specific TCR can be detected with the KJ1-26 monoclonal antibody (mAb) that binds only to this particular TCR heterodimer. These cells provide a ready source of “normal” antigen (ova)-specific effector T cells. Effective antigen-mediated APC stimulation of those T cells is generally measured by ELISA quantitation of IL-2 or IFN-γ in the culture supernatants of DC+D011.10 T cells after 24-48 hours of incubation.
In one experiment, murine bone marrow derived DCs (6 day cultures) were pulsed with ova (50 μg/ml-5×10^5 cells/ml) and then potentiated overnight with LPS(R595), MPL® immunostimulant-S, RC-527, RC-529 or RC-544 prior to being cultured together with naive D011.10 effector T cells (FIGS. 1-7). The APC function of these DCs as measured by their ability to stimulate IL-2, IFN-γ IL-12 (p70) and IL-12 (p40) secretion in the DC+D011.10 co-culture systems was analyzed. All of the data shown in FIGS. 1-7 was developed from DCs maintained in lipid A induction cultures for either 15 or 38 hours prior to use in the T cell assay.

[5] = Exp. # 092398, Day 7, LPS 10 ng/ml, others 100 ng/ml
[6] = Exp. # 093098, LPS 10 ng/ml, others 100 ng/ml

Structure (SMILES): CCCCCCCCCCCC(CC(=O)NC(COC1OC(CO)C(OP(=O)(O)O)C(OC(=O)CC(CCCCCCCCCCC)OC(=O)CCCCCCCCC)C1NC(=O)CC(CCCCCCCCCCC)OC(=O)CCCCCCCCC)C(=O)O)OC(=O)CCCCCCCCC (stereo not shown) [RC-527]
- T cell proliferation / DC activation, CPM 3H-thymidine response (in words) [1]: highest levels of DC activation compared to MPL® immunostimulant
- IL-12 p40 ([2]; Exp. # 091698, LPS 10 ng/ml, others 100 ng/ml): 202,200 pg/mL/5 × 10^5 Cells
- IL-12 p70 ([2]; Exp. # 092398 (second line, Day7), LPS 10 ng/ml, others 100 ng/ml): 201.4 pg/ml/5 × 10^5 Cells
- IL-12 p40 [2, 5]: 163,000 pg/mL/5 × 10^5 Cells
- TNF-α [2, 5]: 10,750 pg/mL/5 × 10^5 Cells
- IL-12 p70 ([2]; Exp. # 092398 as printed (first line of section), LPS 10 ng/ml, others 100 ng/ml): 194.0 pg/ml/5 × 10^5 Cells
- IL-12 p70 ([2]; Exp. # 092398 as printed (third line of section), LPS 10 ng/ml, others 100 ng/ml): 168.9 pg/ml/5 × 10^5 Cells
- TNF-α ([2]; Exp. # 093098 (third line of section), LPS 10 ng/ml, others 100 ng/ml): 7,020 pg/mL/5 × 10^5 Cells
- IL-12 p40 [2, 6]: 107,600 pg/mL/5 × 10^5 Cells
- TNF-α [2, 6]: 4,000 pg/mL/5 × 10^5 Cells
- IL-12 (p40) expression (in words) ([2]; all three experiments, LPS 10 ng/ml, others 100 ng/ml): in every case a potent stimulator of IL-12 (p40)
- IL-12 (p70) (in words) ([2]; the one donor in which LPS and MPL-S gave a significant amount): high levels of IL-12 (p70)
- IL-12 (p70) expression (in words) ([2]; the other two experiments (different normal donors)): significant levels of IL-12 (p70) expression
- TNF-α secretion (in words) ([2]; three donors): very strong TNF-α effect in all three donors
- CD 1a % positive cells ([3]; Exp. 091698, 24 h): 93.5%
- CD 1a MFI ([3]; Exp. 091698, 24 h): 8.71
- CD 4 % positive cells ([3]; Exp. 091698, 24 h): 69.5%
- CD 4 MFI ([3]; Exp. 091698, 24 h): 2.33
- CD 14 % positive cells ([3]; Exp. 091698, 24 h): 4.2%
- CD 35 % positive cells ([3]; Exp. 091698, 24 h): 49.4%
- CD 35 MFI ([3]; Exp. 091698, 24 h): 2.74
- CD 40 MFI ([3]; Exp. 091698, 24 h): 43.0
- CD 44 MFI ([3]; Exp. 091698, 24 h): 329
- CD 54 MFI ([3]; Exp. 091698, 24 h): 34.9
- CD 62 L % positive cells ([3]; Exp. 091698, 24 h): 11.2%
- CD 69 % positive cells ([3]; Exp. 091698, 24 h): 16.1%
- CD 80 % positive cells ([3]; Exp. 091698, 24 h): 99.5%
- CD 80 MFI ([3]; Exp. 091698, 24 h): 8.37
- CD 83 % positive cells ([3]; Exp. 091698, 24 h): 97.0%
- CD 83 MFI ([3]; Exp. 091698, 24 h): 3.52
- CD 86 % positive cells ([3]; Exp. 091698, 24 h): 99.8%
- CD 86 MFI ([3]; Exp. 091698, 24 h): 18.1
- CD 95 % positive cells ([3]; Exp. 091698, 24 h): 93.6%
- CD 95 MFI ([3]; Exp. 091698, 24 h): 1.61
- HLA-DR MFI ([3]; Exp. 091698): 74.2
- CD 1a % positive cells ([3]; Exp. 092398, 24 h): 84.1%
- CD 1a MFI ([3]; Exp. 092398, 24 h): 5.57
- CD 4 % positive cells ([3]; Exp. 092398, 24 h): 69.5%
- CD 4 MFI ([3]; Exp. 092398, 24 h): 2.66
- CD 14 % positive cells ([3]; Exp. 092398, 24 h): 4.3%
- CD 35 % positive cells ([3]; Exp. 092398, 24 h): 65.1%
- CD 35 MFI ([3]; Exp. 092398, 24 h): 3.02
- CD 40 MFI ([3]; Exp. 092398, 24 h): 35.0
- CD 54 MFI ([3]; Exp. 092398, 24 h): 42.6
- CD 62 L % positive cells ([3]; Exp. 092398, 24 h): 13.6%
- CD 69 % positive cells ([3]; Exp. 092398, 24 h): 10.5%
- CD 80 % positive cells ([3]; Exp. 092398, 24 h): 99.4%
- CD 80 MFI ([3]; Exp. 092398, 24 h): 12.7
- CD 83 % positive cells ([3]; Exp. 092398, 24 h): 97.6%
- CD 83 MFI ([3]; Exp. 092398, 24 h): 3.57
- CD 86 % positive cells ([3]; Exp. 092398, 24 h): 99.9%
- CD 86 MFI ([3]; Exp. 092398, 24 h): 28.0
- CD 95 % positive cells ([3]; Exp. 092398, 24 h): 94.8%
- CD 95 MFI ([3]; Exp. 092398, 24 h): 1.78
- αC5aR + GAR Alexa % positive cells ([3]; Exp. 092398, 24 h): 42.3%
- CD 44 MFI ([3]; Exp. 092398, 24 h, values printed with a trailing +): 499+
- GAR-Alexa % positive cells ([3]; Exp. 092398, 24 h, secondary reagent staining): 2.9%
- HLA-DR MFI ([3]; Exp. 092398): 107.8
- CCR 6 % positive cells ([3]; Exp. 093098, 24 h): 4.0%
- CD 1a % positive cells ([3]; Exp. 093098, 24 h): 80.3%
- CD 1a MFI ([3]; Exp. 093098, 24 h): 6.83
- CD 3 % positive cells ([3]; Exp. 093098, 24 h): 28.5%
- CD 3 MFI ([3]; Exp. 093098, 24 h): 3.89
- CD 4 % positive cells ([3]; Exp. 093098, 24 h): 75.2%
- CD 4 MFI ([3]; Exp. 093098, 24 h): 3.06
- CD 11c % positive cells ([3]; Exp. 093098, 24 h): 92.6%
- CD 11c MFI ([3]; Exp. 093098, 24 h): 6.77
- CD 14 % positive cells ([3]; Exp. 093098, 24 h): 3.3%
- CD 40 MFI ([3]; Exp. 093098, 24 h): 34.9
- CD 54 MFI ([3]; Exp. 093098, 24 h): 47.0
- CD 62 L % positive cells ([3]; Exp. 093098, 24 h): 3.0%
- CD 80 % positive cells ([3]; Exp. 093098, 24 h): 98.9%
- CD 80 MFI ([3]; Exp. 093098, 24 h): 13.1
- CD 83 % positive cells ([3]; Exp. 093098, 24 h): 92.6%
- CD 83 MFI ([3]; Exp. 093098, 24 h): 3.63
- CD 86 % positive cells ([3]; Exp. 093098, 24 h): 99.5%
- CD 86 MFI ([3]; Exp. 093098, 24 h): 27.4
- CD 123 % positive cells ([3]; Exp. 093098, 24 h): 52.9%
- CD 123 MFI ([3]; Exp. 093098, 24 h): 1.99
- αC5aR + Alexa 488 % positive cells ([3]; Exp. 093098, 24 h): 42.7%
- αC5aR + Alexa 488 MFI ([3]; Exp. 093098, 24 h): 8.17
- HLA-DR MFI ([3]; Exp. 093098): 172.9
- IFN-γ release by D011.10 T cells (in words) ([4]; DCs precultured 38 hours, FIG. 3): generally more potent
- IFN-γ secretion by D011.10 cells (in words) ([4]; DCs prestimulated 15 hours, FIG. 2): high levels of IFN-γ release
- IL-2 secretion (in words) ([4]; DCs prestimulated 15 hours, all T cell:APC ratios, FIG. 1): comparable in their ability to stimulate IL-2 secretion
- IFN-γ secretion at T cell:APC ratio 32:1 (in words) ([4]; FIG. 4): comparable to that observed with LPS
- IL-12 (p70) in DC+D011.10 co-cultures (in words) ([4]; FIG. 5): most potent
- release of IL-12 (p40) homodimer in DC+D011.10 co-cultures (in words) ([4]; FIG. 7): most potent effect
